Assay results published in article PMC5363373, “Zirconium tetraazamacrocycle complexes display extraordinary stability and provide a new strategy for zirconium-89-based radiopharmaceutical development” (Chemical Science, 2016).

Columns and labels:
PET/CT imaging = format: in vivo, female NIH Swiss mice; conditions: normal mice; for Route of excretion: PET imaging; for PET: radioactivity at 4 h after injection / PET: radioactivity at 24 h after injection: static imaging
Experimental: PET/CT Imaging. PET imaging with 89Zr-DFO or 89Zr-DOTA was performed on healthy female NIH Swiss mice (6-8 wk old, n=6) using a small animal PET/CT scanner (eXplore VISTA model, GE Healthcare, Waukesha, WI). Before imaging, each mouse was anesthetized by inhalation of isoflurane mixed with oxygen gas (3% isoflurane for induction and 1-2% for maintenance) and a tail vein catheter was placed on the tail. The mouse was then positioned in the imaging cradle and a CT scan was performed for the subsequent attenuation correction and anatomical colocalization. After the CT scan, 89Zr-DFO or 89Zr-DOTA (11.1-12.5 MBq (300-338 µCi) in 100 µL saline/ mouse) was administered through the tail vein catheter, and a dynamic PET scan was simultaneously initiated and acquired for 1 hour to record the initial distribution and pharmacokinetics. Mice were re-anesthetized at 2, 4 and 24 hours, and a static PET scan was acquired for 20 min as late-phase scans. PET images were reconstructed using 2D ordered subset expectation maximization (2D-OSEM) algorithms with random, scatter, and attenuation corrections and then coregistered with the CT image. The PET system was calibrated using a Zr-89 phantom with known activity. Standard uptake value (SUV = [(nCi/mL) x (animal wt. (g))/ injected dose (nCi)]) and the measure of %ID/g was then calculated voxel-wise with the calibration factor and normalization to the injected dose and animal body weight. For dynamic scans, data were binned into 19 time frames with the following schemes: 6x10s, 2x30s, 3x60s, 5x5min, 3x10min. The tissue uptake curves were generated from the dynamic scans with regions of interest (ROIs) manually placed in heart, liver, kidney, bone, and muscle. Biodistribution data at 2, 4 and 24 hours were obtained from the PET images, with regions of interest placed in corresponding organs or tissues.

[1] = Behaviour of the complex in solution in vitro; format: physicochemical; conditions: unless a low concentration of surfactant was included

Row | SMILES | Route of excretion (PET/CT imaging) | PET: radioactivity at 4 h after injection (PET/CT imaging) | PET: radioactivity at 24 h after injection (PET/CT imaging) | Behaviour in solution without surfactant [1]
1 | CC(=O)N1CCCCCNC(=O)CCC(=O)N2CCCCCNC(=O)CCC(=O)N(CCCCCN)[O][89Zr+]([O]1)[O]2 [89Zr-DFO, reference compound] | excreted renally | more radioactivity accumulated in the kidneys | still visible | 
2 | NC(=O)CN1CCN(CC(N)=O)CCN(CC(N)=O)CCN(CC(N)=O)CC1.[89Zr+4] [89Zr-DOTAM] |  |  |  | aggregated and precipitated out of solution
3 | O=C1CN2CCN3CCN4CCN(CC2)CC(=O)[O][89Zr]([O]1)([O]C(=O)C3)[O]C(=O)C4 [89Zr-DOTA] | excreted renally | nearly all the radioactivity was excreted | barely above background levels | 
